# Assay results reported in patent publication US20250262279A1, “DOSE REGIMEN FOR LONG-ACTING GLP1/GLUCAGON RECEPTOR AGONISTS” (Boehringer Ingelheim International GmbH, priority 2021, published 2025).
# What was measured:
# [1] = Example 1 Phase I titration study in obesity/overweight: safety and tolerability; conditions: for Patients withdrawn from up-titration: Ex.1 Part B (16 wk)
# Source text: Blinded within dose groups, randomised, placebo-controlled
# • Male patients (Part A); male and female patients (Part B) • Age 18 to <70 years • BMI 27 to <40 kg/m^2 • Body weight of at least 70 kg for women and 80 kg for men • Stable body weight, defined as no more than 5% change within 3 months prior to screening
# Further criteria of interest: • AEs (including clinically relevant findings from the physical examination and assessment of local tolerability) • Safety laboratory tests • 12-lead ECG • Vital signs (blood pressure, pulse rate) • Continuous ECG (including mean daily heart rate) • Assessment of local tolerability by the investigator • The cumulative number [N (%)] of patients withdrawn from up-titration by up-titration scheme and week
# Descriptive statistics were calculated for all endpoints. […] No formal interim analysis was conducted. Data from the completed 6-week cohorts were analysed before database lock for internal decision-making.
# [2] = Example 2 Phase I study in healthy Japanese men: safety and tolerability; assay type: in vivo, human
# Source text: This study was a randomised, placebo-controlled, single-blind, and parallel-group clinical trial with up to 3 dose-escalation schemes (Dose Groups [DGs]1 to 3) in healthy Japanese male subjects with BMI 23 to 40 kg/m^2. The weekly (DG1 and DG2) or twice a week (DG3) dosing in this scheme allowed for immediate clinical evaluation whether a further increase in the cumulative weekly dose was safe and well tolerated. The treatment duration was 16 weeks in total including a dose escalation phase to minimize Gastrointestinal (GI) Adverse Events (AEs) of Compound I. This was followed by a 4-week follow-up period.
# The primary endpoint to assess the safety and tolerability of Compound I was the cumulative percentage (%) of subjects withdrawn from the up-titration by the dose escalation scheme.
# • AEs (including clinically relevant findings from the physical examination) • Safety laboratory tests • 12-lead electrocardiogram (ECG) • Continuous ECG monitoring • Vital signs (blood pressure, pulse rate) • Columbia-Suicide Severity Rating Scale (C-SSRS) • Change from baseline in heart rate following treatment with Compound I relative to placebo (until 24 hours after Compound I administration) • The cumulative number [N (%)] of subjects withdrawn from the up-titration by the dose escalation scheme and week
# The main objective of this trial was to assess the safety and tolerability of Compound I as well as PK and PD parameters by using descriptive statistics for all endpoints, which were compared across treatment groups. Further analysis comprised linear modelling for attainment of steady state in DG1.
# [3] = Ex.1 Part B, Weekly 6 (twice weekly)
smiles,measurement,setting,value
CC[C@H](C)[C@H](NC(=O)[C@H](Cc1ccccc1)NC(=O)[C@H](CC(=O)O)NC(=O)[C@H](CCCCN)NC(=O)[C@H](C)NC(=O)[C@H](C)NC(=O)[C@H](CCCNC(=N)N)NC(=O)[C@H](CCC(=O)O)NC(=O)[C@H](CC(=O)O)NC(=O)[C@H](CC(C)C)NC(=O)[C@H](Cc1ccc(O)cc1)NC(=O)[C@H](CCCCN)NC(=O)[C@H](CO)NC(=O)[C@H](Cc1ccc(O)cc1)NC(=O)[C@H](CC(=O)O)NC(=O)[C@H](CO)NC(=O)[C@@H](NC(=O)[C@H](Cc1ccccc1)NC(=O)[C@@H](NC(=O)CNC(=O)[C@H](CCC(N)=O)NC(=O)C1(NC(=O)[C@@H](N)Cc2c[nH]cn2)CCC1)[C@@H](C)O)[C@@H](C)O)C(=O)N[C@@H](CCCCNC(=O)CNC(=O)CNC(=O)[C@H](CO)NC(=O)CNC(=O)[C@H](CO)NC(=O)CNC(=O)CC[C@H](NC(=O)CCCCCCCCCCCCCCCCC(=O)O)C(=O)O)C(=O)N[C@@H](Cc1c[nH]c2ccccc12)C(=O)N[C@@H](CC(C)C)C(=O)N[C@@H](CCC(=O)O)C(=O)N[C@@H](CO)C(=O)N[C@@H](C)C(N)=O [Compound I],Patients with any AE,"[1]; Ex.1 Part A, Weekly 3",17 (100) N (%)
same,Patients with investigator defined drug-related AE,"[1]; Ex.1 Part A, Weekly 3",17 (100) N (%)
same,Patients with other significant AEs (ICH E3),"[1]; Ex.1 Part A, Weekly 3",2 (11.8) N (%)
same,Patients with serious AE,"[1]; Ex.1 Part A, Weekly 3",0 N (%)
same,Patients with severe AE,"[1]; Ex.1 Part A, Weekly 3",0 N (%)
same,proportion of patients who withdrew from up-titration,"[1]; Ex.1 Part A, Weekly 3",76.5%
same,proportion of patients who withdrew from up-titration,"[1]; Ex.1 Part A, all Compound I groups",40.3%
same,"continuous ECG monitoring over 24 hours, mean heart rate","[1]; Ex.1 Part A, all Compound I treatment groups",increases in mean heart rate
same,clinical laboratory analyses,[1]; Ex.1 Part B,no treatment-emergent clinically relevant findings
same,deaths,[1]; Ex.1 Part B,No patients died
same,drug-related cardiac disorders,[1]; Ex.1 Part B,no cases
same,Patients withdrawn from up-titration,[1]; Compound I total,8 (22.2) N (%)
same,Patients withdrawn from up-titration,[1]; Weekly 4,3 (23.1) N (%)
same,Patients withdrawn from up-titration,[1]; Weekly 5,4 (36.4) N (%)
same,Patients withdrawn from up-titration,[1]; Weekly 6 (twice weekly),1 (8.3) N (%)
same,Patients with AE leading to discontinuation of trial drug,"[1]; Ex.1 Part B, Cmp I Total",6 (16.7) N (%)
same,Patients with any AE,"[1]; Ex.1 Part B, Cmp I Total",35 (97.2) N (%)
same,Patients with investigator defined drug-related AE,"[1]; Ex.1 Part B, Cmp I Total",35 (97.2) N (%)
same,Patients with other significant AEs (ICH E3),"[1]; Ex.1 Part B, Cmp I Total",8 (22.2) N (%)
same,Patients with serious AE,"[1]; Ex.1 Part B, Cmp I Total",0 N (%)
same,Patients with severe AE,"[1]; Ex.1 Part B, Cmp I Total",8 (22.2) N (%)
same,Patients with AE leading to discontinuation of trial drug,"[1]; Ex.1 Part B, Weekly 4",3 (23.1) N (%)
same,Patients with any AE,"[1]; Ex.1 Part B, Weekly 4",13 (100.0) N (%)
same,Patients with investigator defined drug-related AE,"[1]; Ex.1 Part B, Weekly 4",13 (100.0) N (%)
same,Patients with other significant AEs (ICH E3),"[1]; Ex.1 Part B, Weekly 4",4 (30.8) N (%)
same,Patients with serious AE,"[1]; Ex.1 Part B, Weekly 4",0 N (%)
same,Patients with severe AE,"[1]; Ex.1 Part B, Weekly 4",4 (30.8) N (%)
same,"drug-related gastrointestinal disorders, frequency","[1]; Ex.1 Part B, Weekly 4",92.3%
same,Patients with AE leading to discontinuation of trial drug,"[1]; Ex.1 Part B, Weekly 5",2 (18.2) N (%)
same,Patients with any AE,"[1]; Ex.1 Part B, Weekly 5",11 (100.0) N (%)
same,Patients with investigator defined drug-related AE,"[1]; Ex.1 Part B, Weekly 5",11 (100.0) N (%)
same,Patients with other significant AEs (ICH E3),"[1]; Ex.1 Part B, Weekly 5",3 (27.3) N (%)
same,Patients with serious AE,"[1]; Ex.1 Part B, Weekly 5",0 N (%)
same,Patients with severe AE,"[1]; Ex.1 Part B, Weekly 5",4 (36.4) N (%)
same,"drug-related gastrointestinal disorders, frequency","[1]; Ex.1 Part B, Weekly 5",all patients
same,proportion of patients who withdrew from up-titration,"[1]; Ex.1 Part B, Weekly 5",36.4%
same,Patients with AE leading to discontinuation of trial drug,[1]; [3],1 (8.3) N (%)
same,Patients with any AE,[1]; [3],11 (91.7) N (%)
same,Patients with investigator defined drug-related AE,[1]; [3],11 (91.7) N (%)
same,Patients with other significant AEs (ICH E3),[1]; [3],1 (8.3) N (%)
same,Patients with serious AE,[1]; [3],0 N (%)
same,Patients with severe AE,[1]; [3],0 N (%)
same,"drug-related gastrointestinal disorders, frequency",[1]; [3],58.3%
same,proportion of patients who withdrew from up-titration,[1]; [3],8.3%
same,proportion of patients who withdrew from up-titration,"[1]; Ex.1 Part B, all Compound I groups",22.2%
same,"ECG analyses, heart rate","[1]; Ex.1 Part B, all Compound I treatment groups",increases in heart rate
same,AEs in the cardiac disorder class,[2]; Ex.2,no AEs reported
same,clinical laboratory values,[2]; Ex.2,Findings of clinical relevance were not observed
same,deaths and AEs of special interest,[2]; Ex.2,neither deaths nor AEs of special interest reported
same,"vital signs, ECG evaluation, local tolerability, suicidal risk assessment",[2]; Ex.2,No clinically relevant findings
same,Subjects with investigator defined drug-related AEs,[2]; Ex.2 Cmp I Total,27 N
same,Number of subjects withdrawn from the up-titration,[2]; Ex.2 Compound I Total,10 N
same,pulse rate,[2]; Ex.2 Compound I dosing groups,expected increase in pulse rate
same,Number of subjects withdrawn from the up-titration,[2]; Ex.2 DG1,2 N
same,subjects with AE decreased appetite,[2]; Ex.2 DG1,8 subjects
same,subjects with AE decreased appetite,"[2]; Ex.2 DG1, of 9 trial subjects",88.9%
same,Number of subjects withdrawn from the up-titration,[2]; Ex.2 DG2,6 N
same,subjects with AE decreased appetite,[2]; Ex.2 DG2,9 subjects
same,subjects with severe vomiting,[2]; Ex.2 DG2,1 subject
same,subjects with AE decreased appetite,"[2]; Ex.2 DG2, of 9 trial subjects",100.0%
same,subjects with severe vomiting,"[2]; Ex.2 DG2, of 9 trial subjects",11.1%
same,subjects with AE decreased appetite,[2]; Ex.2 DG3,7 subjects
same,subjects with severe diarrhoea,[2]; Ex.2 DG3,1 subject
same,Number of subjects withdrawn from the up-titration,[2]; Ex.2 DG3 (twice weekly),2 N
same,subjects with AE decreased appetite,"[2]; Ex.2 DG3, of 9 trial subjects",77.8%
same,subjects with severe diarrhoea,"[2]; Ex.2 DG3, of 9 trial subjects",11.1%
